Mortality and LD50 data for ten compounds are collected here from patent US4433182A, “Insecticidal 2,2'-bridged[1,1'-biphenyl]-3-ylmethyl esters” (FMC Corporation, priority 1981, dated 1984).

What all share (format): in vivo
Test [1] deals with twospotted spider mite (Tetranychus urticae). In words: Foliar application, twospotted spider mite mortality. As to conditions: read-out: Mortality (% killed). On the procedure: (§1) The compounds were also tested in foliar applications at various concentrations in aqueous solutions containing 10% acetone and 0.25% emulsifier. The plants (English fava bean for pea aphid and pinto bean for the remaining species) were placed on a revolving turntable in a hood, and the test solutions were applied with a sprayer. The test solutions were applied to the upper and lower surfaces of the plant leaves while the turntable revolved 10 times (5 for upper surface and 5 for lower surface). The total spray time was approximately one minute, and the leaves were covered to runoff. In every case the lowest rate was applied first and the highest rate last. The plants were then allowed to dry. The treated leaves were removed and placed in 240 ml or 480 ml wax treated containers. Ten individuals of the appropriate species were placed in each container and the container capped. Mortality was read 48 hours post-treatment unless otherwise noted. Two replicates of ten individuals were made at each rate. Foliar evaluation used southern armyworm (Spodoptera eridania), Mexican bean beetle (Epilachna varivestis), pea aphid (Acyrthosiphon pisum), and twospotted spider mite (Tetranychus urticae).

Test [2] has as its system tobacco budworm (Heliothis virescens). The experiment in a line: Topical application to tobacco budworm. As to conditions: TBW, 24 hours after application. On the procedure:
(§2) The activity was evaluated in topical application to southern armyworm (Spodoptera eridania), Mexican bean beetle (Epilachna varivestis), large milkweed bug (Oncopeltus fasciatus), cabbage looper (Trichoplusia ni), and tobacco budworm (Heliothis virescens). Two replicates of 10 test larvae per replicate were placed in 9 cm petri dishes, each lined with a piece of filter paper and a food source. On the second or third dorsal thoracic segment of each larva was placed a 1 microliter droplet containing the desired amount of the test compound in acetone. The toxic effect of the compound was determined 24 hours after application. An insect was considered dead if it could no longer right itself and move in an oriented pattern.

Test [3] relates to large milkweed bug (Oncopeltus fasciatus). The experiment in a line: Topical application to large milkweed bug. The note with it: MWB, 24 hours after application. The method, then: as §2
The test system of test [4] is pea aphid (Acyrthosiphon pisum). In words: Foliar application, pea aphid mortality. As to conditions: read-out: Mortality (% killed). On the procedure:
as §1

The test system of test [5] is southern armyworm (Spodoptera eridania). In words: Foliar application, southern armyworm mortality. The note with it: read-out: Mortality (% killed). The method, then: as §1
Test [6] has as its system Mexican bean beetle (Epilachna varivestis). In words: Topical application to Mexican bean beetle. As to conditions: MBB, 24 hours after application. The method, then: as §2
Test [7] relates to southern armyworm (Spodoptera eridania). The experiment in a line: Topical application to southern armyworm larvae. The note with it: SAW, 24 hours after application. On the procedure: as §2
Test [8] relates to cabbage looper (Trichoplusia ni). The experiment in a line: Topical application to cabbage looper. The note with it: CL, 24 hours after application. The method, then: as §2
The test system of test [9] is Mexican bean beetle (Epilachna varivestis). The experiment in a line: Foliar application, Mexican bean beetle mortality. As to conditions: read-out: Mortality (% killed). On the procedure:
as §1

Like-named read-outs stand apart in the source and are kept apart here.

`CC1(C)[C@H](C(=O)OCc2cccc3c2CCCc2ccccc2-3)[C@@H]1C=C(Cl)C(F)(F)F` (relative stereo) [Ex. IV (cis), (6,7-dihydro-5H-dibenzo[a,c]cyclohepten-4-yl)methyl cis-3-(2-chloro-3,3,3-trifluoromethyl-1-propenyl)-2,2-dimethylcyclopropanecarboxylate]: the results for the mortality at 2.1 ppm in [1] (48 h) and in test [9] (48 h) were 4% and 100%, respectively. The figures for the mortality at 10 ppm in test [1] (48 h) and in test [5] (48 h) were 100% and 75%, respectively. In addition, the LD50 in [2] is listed as 212 ng/insect; in test [3] it was 83 ng/insect; in test [6], 4.26 ng/insect; in [7], 54 ng/insect; in [8], 64 ng/insect. In test [4] (48 h), the mortality at 0.25 ppm was 80%.
Consider `CC1(C)[C@H](C=C(Cl)C(F)(F)F)[C@@H]1C(=O)OCc1cccc2c1CCCCc1ccccc1-2` (relative stereo) [Ex. VII (cis), (5,6,7,8-tetrahydrodibenzo[a,c]cycloocten-4-yl)methyl cis-3-(2-chloro-3,3,3-trifluoropropenyl)-2,2-dimethylcyclopropanecarboxylate], for which the mortality at 16 ppm in test [1] (TSM, foliar, 48 hours) stood at 24%. Moreover, the LD50 stood at 396 ng/insect in test [3], 20.6 ng/insect in test [6] and 410 ng/insect in test [7]. Besides, the mortality at 4 ppm was found to be 0% in test [4] (PA, foliar, 48 hours) and 95% in [9] (MBB, foliar, 48 hours).
`CC1(C)[C@H](C=C(Cl)Cl)[C@@H]1C(=O)OCc1cccc2c1CCCc1ccccc1-2` (relative stereo) [Ex. III (cis), (6,7-dihydro-5H-dibenzo[a,c]cyclohepten-4-yl)methyl cis-3-(2,2-dichloroethenyl)-2,2-dimethylcyclopropanecarboxylate]: the mortality at 10 ppm was 13% in test [1] (TSM, foliar, 10 ppm, 48 hours); 90% in test [4] (PA, foliar, 10 ppm, 48 hours); 40% in test [5] (SAW, foliar, 10 ppm, 48 hours); 85% in [9] (MBB, foliar, 10 ppm, 48 hours). Also, the LD50 was found to be 375 ng/insect in test [2]; 104 ng/insect in [3]; 11 ng/insect in [6]; 96 ng/insect in test [7]; 62 ng/insect in [8]. Moreover, the mortality at 4.5 ppm was determined as 55% in test [4] (PA, foliar, 4.5 ppm, 48 hours); 5% in [5] (SAW, foliar, 4.5 ppm, 48 hours); 55% in [9] (MBB, foliar, 4.5 ppm, 48 hours).
On to `CC1(C)[C@H](C(=O)OCc2cccc3c2CCc2ccccc2-3)[C@@H]1C=C(Cl)C(F)(F)F` (relative stereo) [Ex. II (cis), (9,10-dihydro-1-phenanthryl)methyl cis-3-(2-chloro-3,3,3-trifluoromethyl-1-propenyl)-2,2-dimethylcyclopropanecarboxylate], for which the mortality at 32 ppm in test [1] (48 h) stood at 78%; in [5] (48 h), 95%. Further, the LD50 stood at 45 ng/insect in test [2]; 170 ng/insect in test [3]; 9.4 ng/insect in test [6]; 36 ng/insect in test [7]; 61 ng/insect in [8]. Moreover, the mortality at 10 ppm in [4] (48 h) is 85%. The mortality at 8 ppm was determined as 30% in test [5] (48 h) and 90% in [9] (48 h).
For `CC1(C)[C@@H](C=C(Cl)Cl)[C@@H]1C(=O)OCc1cccc2c1Cc1ccccc1-2` (relative stereo) [Ex. V (trans), 9H-fluorene-1-methyl trans-3-(2,2-dichloroethenyl)-2,2-dimethylcyclopropanecarboxylate], the results for the mortality at 500 ppm in test [1] (48 h), in [4] (48 h) and in [5] (48 h) were 0%, 0% and 25%, respectively. In addition, the mortality at 64 ppm in test [4] (48 h) turned out to be 20%; in test [5] (48 h), 0%; in test [9] (48 h) it was 15%.
As to `CC1(C)[C@H](C(=O)OCc2cccc3c2Cc2ccccc2-3)[C@@H]1C=C(Cl)C(F)(F)F` (relative stereo) [Ex. VI (cis), 9H-fluorene-1-methyl cis-3-(2-chloro-3,3,3-trifluoromethyl-1-propenyl)-2,2-dimethylcyclopropanecarboxylate], the mortality at 500 ppm in test [1] (48 h) turned out to be 0%; in test [4] (48 h), 90%; in test [5] (48 h) it was 100%. Moreover, the mortality at 64 ppm in [4] (48 h) was found to be 50%; in test [5] (48 h) it was 95%; in test [9] (48 h) it was 0%. Also, the LD50 in [6] came out at 762 ng/insect; in test [7] it was 1160 ng/insect.
As to `CC1(C)[C@H](C=C(Cl)Cl)[C@@H]1C(=O)OCc1cccc2c1CCc1ccccc1-2` (relative stereo) [Ex. I (cis), (9,10-dihydro-1-phenanthryl)methyl cis-3-(2,2-dichloroethenyl)-2,2-dimethylcyclopropanecarboxylate], the LD50 in [2] is recorded as 193 ng/insect; in [3], 176 ng/insect; in test [6] it was 64 ng/insect; in [7], 121 ng/insect; in test [8] it was 241 ng/insect. The mortality at 16 ppm came to 55% in [4] (PA, foliar, 48 hours); 10% in test [5] (SAW, foliar, 48 hours); 30% in [9] (MBB, foliar, 48 hours). The mortality at 32 ppm in test [4] (PA, foliar, 32 ppm, 48 hours) came to 90%; in test [5] (SAW, foliar, 32 ppm, 48 hours), 30%; in [9] (MBB, foliar, 32 ppm, 48 hours) it was 35%. The mortality at 80 ppm was found to be 80% in test [5] (SAW, foliar, 80 ppm, 48 hours) and 75% in [9] (MBB, foliar, 80 ppm, 48 hours).
As to `CC1(C)[C@H](C(=O)OCc2cccc3c2Cc2ccccc2-3)[C@@H]1C=C(Cl)Cl` (relative stereo) [Ex. V (cis), 9H-fluorene-1-methyl cis-3-(2,2-dichloroethenyl)-2,2-dimethylcyclopropanecarboxylate], the mortality at 500 ppm in test [1] (48 h) was 0%; in test [4] (48 h) it was 90%; in test [5] (48 h) it was 100%. The values for the mortality at 64 ppm in test [4] (48 h), in [5] (48 h) and in test [9] (48 h) were 30%, 0% and 0%, respectively. The LD50 is recorded as 3320 ng/insect in test [6] and 460 ng/insect in test [7].
As for `CC1(C)[C@@H](C=C(Cl)Cl)[C@@H]1C(=O)OCc1cccc2c1CCCc1ccccc1-2` (relative stereo) [Ex. III (trans), (6,7-dihydro-5H-dibenzo[a,c]cyclohepten-4-yl)methyl trans-3-(2,2-dichloroethenyl)-2,2-dimethylcyclopropanecarboxylate], the LD50 is 355 ng/insect in test [2]; 315 ng/insect in test [3]; 50 ng/insect in [6]; 95 ng/insect in test [7]; 92 ng/insect in test [8]. For the same compound, the mortality at 4 ppm in test [4] (PA, foliar, 48 hours) was determined as 80%; in test [5] (SAW, foliar, 4 ppm, 48 hours) it was 10%; in [9] (MBB, foliar, 48 hours), 20%. Also, the mortality at 16 ppm in [4] (PA, foliar, 48 hours) was found to be 90%; in [5] (SAW, foliar, 48 hours), 100%; in [9] (MBB, foliar, 48 hours), 55%.
Consider `CC1(C)[C@H](C(=O)OCc2cccc3c2CCCCc2ccccc2-3)[C@@H]1C=C(Cl)Cl` [Ex. VIII (1R,cis), (5,6,7,8-tetrahydrodibenzo[a,c]cycloocten-4-yl)methyl 1R,cis-3-(2,2-dichloroethenyl)-2,2-dimethylcyclopropanecarboxylate], for which the mortality at 16 ppm in test [1] (TSM, foliar, 48 hours) stood at 14%. Also, the LD50 was determined as 460 ng/insect in [3] and 201 ng/insect in [7]. For the same compound, the mortality at 4 ppm came out at 0% in test [4] (PA, foliar, 48 hours) and 50% in test [9] (MBB, foliar, 48 hours).
